Assay results published in patent US20060110370A1, “Treatments for reduction of cytotoxicity and viral contamination of implantable medical devices” (priority 2004, published 2006).

Columns and labels:
Reovirus Type 3 (REO-3) = assay: Viral inactivation of spiked porcine valve and pericardium, REO-3; assay type: cell-based; settings: 0.2% glutaraldehyde at 47 days; average for porcine valve and pericardium material
Porcine Parvovirus (PPV) = assay: Viral inactivation of spiked porcine valve and pericardium, PPV; assay type: cell-based; settings: 0.2% glutaraldehyde at 47 days; average for porcine valve and pericardium material
[1] = test system: Influenza A Virus (Inf A); assay: Viral inactivation of spiked porcine valve and pericardium, Inf A; assay type: cell-based; settings: 0.2% glutaraldehyde at 47 days; average for porcine valve and pericardium material
Pseudorabies Virus (PrV) = assay type: cell-based; settings: 0.2% glutaraldehyde at 47 days; average for porcine valve and pericardium material
[2] = test system: Amphotropic Murine Leukemia Virus (A-MuLV); assay: Viral inactivation of spiked porcine valve and pericardium, A-MuLV; assay type: cell-based; settings: 0.2% glutaraldehyde at 47 days; average for porcine valve and pericardium material
[3] = test system: five viruses (A-MuLV, Inf A, PPV, PrV, REO-3); assay: Viral inactivation, panel of five viruses (remaining virus); assay type: cell-based; settings: after 47 days of exposure
[4] = Calcification after subcutaneous implantation in rats (Example 2), porcine cusp; assay type: in vivo, Sprague-Dawley rats; settings: retrieved after 60 days of implantation, about 16 hours treatment
Protocol: (§1) In a class 100 laminar flow bench, pieces of glutaraldehyde-fixed bovine pericardium tissue (Mitroflow Inc.; Richmond, British Columbia, Canada) porcine cusp tissue (Labcor; Belo Horizonte, Brazil) and porcine wall tissue (Labcor Inc.) were transferred into sterile tubes containing 1,2-octanediol solutions (5% 1,2-octanediol (Aldrich Chemical), 40% ethanol and 55% 10 mM HEPES buffer). The tubes were transferred to a 37° C. incubator and maintained at 37° C. with gentle agitation for about 16 hours. After the treatment, the samples were transferred to solutions comprising 22% ethanol in 10 mM HEPES and stored for 14 days at 4° C. The final tissue to volume ratio for all treatments was approximately 27 ml/g. For N-methyl pyrolidinone (NMP) treatments, pieces of glutaraldehyde-fixed bovine pericardium tissue (Mitroflow Inc.), porcine cusp tissue (Labcor Inc.) and porcine wall tissue (Labcor Inc.) were transferred into sterile tubes containing NMP. The tubes were incubated at room temperature for about 16 hours with occasional manual agitation. After the treatment, the tissue samples were transferred to 22% HEPES-buffered ethanol solutions and stored for 14 days at 4° C. […] Seven rats per treatment group were analyzed. […] After retrieval, the samples were analyzed for their calcium and phosphorus contents using a standard ICP methodology.

[5] = Calcification after subcutaneous implantation in rats (Example 2), porcine wall; assay type: in vivo, Sprague-Dawley rats; settings: retrieved after 60 days of implantation, about 16 hours treatment
Protocol: as §1

[6] = Calcification after subcutaneous implantation in rats (Examples 2 and 3), bovine pericardium; assay type: in vivo, Sprague-Dawley rats; settings: retrieved after 60 days of implantation, about 16 hours treatment
Protocol: as §1, with “agitation.” for “agitation. After the treatment, the tissue samples were transferred to 22% HEPES-buffered ethanol solutions and stored for 14 days at 4° C.”, “methodology. […] Seven rats per treatment group were analyzed. […] After retrieval, the samples were analyzed for their calcium and phosphorus contents by ICP.” for “methodology.”

Row | Compound | Viral log reduction, REO-3 (Reovirus Type 3 (REO-3)) [log] | Viral log reduction, PPV (Porcine Parvovirus (PPV)) [log] | Viral log reduction, Inf A [1] [log] | Viral log reduction, PrV (Pseudorabies Virus (PrV)) [log] | Viral log reduction, A-MuLV [2] [log] | viruses present on porcine valves or pericardium materials [3] | Calcuim (μg/mg tissue) [4] [μg/mg tissue] | Phosphorus (μg/mg tissue) [4] [μg/mg tissue] | Calcuim (μg/mg tissue) [5] [μg/mg tissue] | Phosphorus (μg/mg tissue) [5] [μg/mg tissue] | Calcuim (μg/mg tissue) [6] [μg/mg tissue] | Phosphorus (μg/mg tissue) [6] [μg/mg tissue]
1 | O=CCCCC=O [Glutaraldehyde, glutaraldehyde] | 5.00 | 5.03 | 3.5 | 5.51 | 4.15 | No viruses were present | – | – | – | – | – | –
2 | CN1CCCC1=O [NMP, N-methyl pyrolidinone] | – | – | – | – | – | – | 14.7 | 7.9 | 111.9 | 55.2 | 8.0 | 3.4
